Experimental data reported in patent EP1156056A1, “5-GLYCOSYLOXY-6-HYDROXYNAPHTHO 2,3-f]QUINOLINE-7,12-DIONE HAVING ANTICANCER ACTIVITIES” (ZAIDAN HOJIN BISEIBUTSU KAGAKU KENKYU KAI, priority 1999, dated 2000).
In brackets after ≈: the same amount, converted by molar mass. Where two headings read alike, the source gives them in different places.

Columns and labels:
Format in all cases: cell-based
[1] = system: human prostatic cancer (PC3); experiment: Inhibition of proliferation of cancer cells in culture (Test Examples 1 and 3); details: for IC50: Homo sapiens; for anticancer activities against PC3, times higher than those of adriamycin: Test Example 1, relative to adriamycin
Procedure: (§1) A culture medium for cancer cells was put into test tubes. To the culture medium in each tube, there was transplanted each of such various mouse cancer cells or human cancer cells as shown in Table 1 below. The cells so transplanted were cultivated under the conditions at 37°C in an air atmosphere containing 5 % CO2. To the medium containing the cancer cells so cultivated, there was added said Compounds A, B, D, E or F of this invention at different concentrations, as the test compound. […] As the comparative compound, adriamycin now clinically used was tested to repeat the test in the same way.
(§2) Namely, they are mouse colon cancer (colon 26), mouse B-cell lymphoma (LB32T), mouse lymphoma (L-1210), human cervical cancer (HeLa), human acute promyeloleukemia (HL60), human prostatic cancer (PC3), human pudendal squamous cell carcinoma (A431), human pulmonary carcinoma (PC6), human mastocarcinoma (MCF7), human esophageal carcinoma (TT), human prostatic cancer (LNcap) and human colon cancer (DLD-1).
(§3) The test method and the nature of cancer cells to be tested are the same as those in Test Example 1 given hereinbefore. In this Test Example 3, however, eight kinds of cancer cells indicated in Table 3 below are used, among the twelve kinds of cancer cells which were used in Test Example 1.
(§4) As the test results of measurement, the evaluated values of the concentration of each test compound which could inhibit the proliferation of cancer cells by 50 % (namely, 50 % inhibitory concentration:IC50, µg/ml) are given in Table 3.

[2] = system: mouse B-cell lymphoma (LB32T); experiment: as above
Procedure: as §1, §2, §3, §4

[3] = system: mouse lymphoma (L-1210); experiment: as above
Procedure: as §1, §2, §3, §4

[4] = system: mouse colon cancer (colon 26); experiment: as above
Procedure: as §1, §2, §3, §4

[5] = system: human prostatic cancer (LNcap); experiment: as above
Procedure: as §1, §2, §3, §4

[6] = system: human acute promyeloleukemia (HL60); experiment: as above
Procedure: as §1, §2, §3, §4

[7] = system: human cervical cancer (HeLa); experiment: as above
Procedure: as §1, §2, §3, §4

[8] = system: human colon cancer (DLD-1); experiment: as above; details: for IC50: Homo sapiens; for anticancer activities against DLD-1, times higher than those of adriamycin: Test Example 1, relative to adriamycin
Procedure: as §1, §2, §3, §4

[9] = system: human mastocarcinoma (MCF7); experiment: Inhibition of proliferation of cancer cells in culture (Test Example 1); details: 72 hours cultivation, read-out: Concentration of test compound to inhibit the proliferation of cancer cells by 50 %
Procedure: as §1, §2

[10] = system: human esophageal carcinoma (TT); experiment: as above; details: 72 hours cultivation, read-out: Concentration of test compound to inhibit the proliferation of cancer cells by 50 %
Procedure: as §1, §2

[11] = system: human pudendal squamous cell carcinoma (A431); experiment: as above; details: A-431, 72 hours cultivation, read-out: Concentration of test compound to inhibit the proliferation of cancer cells by 50 %
Procedure: as §1, §2

[12] = system: human pulmonary carcinoma (PC6); experiment: as above; details: 72 hours cultivation, read-out: Concentration of test compound to inhibit the proliferation of cancer cells by 50 %
Procedure: as §1, §2

[13] = Test Example 3, Compounds N to T used as trifluoroacetate, read-out: IC50
[14] = L1210, Test Example 3, Compounds N to T used as trifluoroacetate, read-out: IC50
[15] = Colon26, Test Example 3, Compounds N to T used as trifluoroacetate, read-out: IC50
[16] = LNCap, Test Example 3, Compounds N to T used as trifluoroacetate, read-out: IC50
[17] = HL-60, Test Example 3, Compounds N to T used as trifluoroacetate, read-out: IC50
[18] = 72 hours cultivation, Test Example 1, read-out: Concentration of test compound to inhibit the proliferation of cancer cells by 50 %, IC50
[19] = LNcap, 72 hours cultivation, Test Example 1, read-out: Concentration of test compound to inhibit the proliferation of cancer cells by 50 %, IC50
[20] = HL-60, 72 hours cultivation, Test Example 1, read-out: Concentration of test compound to inhibit the proliferation of cancer cells by 50 %, IC50
[21] = L1210, 72 hours cultivation, Test Example 1, read-out: Concentration of test compound to inhibit the proliferation of cancer cells by 50 %, IC50
[22] = colon26, 72 hours cultivation, Test Example 1, read-out: Concentration of test compound to inhibit the proliferation of cancer cells by 50 %, IC50
[23] = Test Example 3, relative to adriamycin

SMILES | IC50 [1, 13] | IC50 [2, 13] | IC50 [3, 14] | IC50 [4, 15] | IC50 [5, 16] | IC50 [6, 17] | IC50 [7, 13] | IC50 [8, 13] | IC50 [9] | IC50 [10] | IC50 [11] | IC50 [12] | IC50 [1, 18] | IC50 [5, 19] | IC50 [6, 20] | IC50 [7, 18] | IC50 [8, 18] | anticancer activities against DLD-1, times higher than those of adriamycin [8] | anticancer activities against PC3, times higher than those of adriamycin [1] | also measured
C[C@@H]1O[C@H](Oc2c(OC(=O)CCN)c3c(c4cccnc24)C(=O)c2ccccc2C3=O)[C@@H](F)[C@H](OC(=O)CCN)[C@@H]1OC(=O)CCN [Compound T, 5-[3,4-di-O-(3-aminopropionyl)-2,6-dideoxy-2-fluoro-β-L-galactopyranosyloxy)-6-(3-aminopropionyloxy)-naphtho[2,3-f]quinoline-7,12-dione] | 0.65 µg/mL (≈ 0.996 µM) | 0.8 µg/mL (≈ 1.23 µM) | 1.17 µg/mL (≈ 1.79 µM) | 0.55 µg/mL (≈ 0.843 µM) | 0.57 µg/mL (≈ 0.873 µM) | 0.78 µg/mL (≈ 1.2 µM) | 0.15 µg/mL (≈ 0.23 µM) | 0.45 µg/mL (≈ 0.69 µM) | – | – | – | – | – | – | – | – | – | – | – | –
CO[C@H]1[C@H](Oc2c(O)c3c(c4cccnc24)C(=O)c2ccccc2C3=O)O[C@@H](C)[C@@H](O)[C@H]1O [Compound B, 5-(6-deoxy-2-O-methyl-α-L-talopyranosyloxy)-6-hydroxynaphtho[2,3-f]quinoline-7,12-dione] | – | – | – | – | – | – | – | – | 2.59 µg/mL (≈ 5.74 µM) | 3.46 µg/mL (≈ 7.66 µM) | 3.33 µg/mL (≈ 7.38 µM) | 4.15 µg/mL (≈ 9.19 µM) | 1.59 µg/mL (≈ 3.52 µM) | 1.54 µg/mL (≈ 3.41 µM) | 1.51 µg/mL (≈ 3.34 µM) | 1.65 µg/mL (≈ 3.66 µM) | 1.13 µg/mL (≈ 2.5 µM) | 1.7 times | – | –
C[C@@H]1O[C@H](Oc2c(O)c3c(c4cccnc24)C(=O)c2ccccc2C3=O)[C@@H](F)[C@H](O)[C@@H]1O [Compound E, 5-(2,6-dideoxy-2-fluoro-β-L-galactopyranosyloxy)-6-hydroxynaphtho[2,3-f]quinoline-7,12-dione] | – | – | – | – | – | – | – | – | 1.26 µg/mL (≈ 2.87 µM) | 1.12 µg/mL (≈ 2.55 µM) | 1.11 µg/mL (≈ 2.53 µM) | 1.08 µg/mL (≈ 2.46 µM) | 0.08 µg/mL (≈ 0.182 µM) | 0.1 µg/mL (≈ 0.228 µM) | 0.33 µg/mL (≈ 0.751 µM) | 0.16 µg/mL (≈ 0.364 µM) | 0.04 µg/mL (≈ 0.091 µM) | – | 11 times | IC50 [2, 18]: 0.26 µg/mL (≈ 0.592 µM); IC50 [3, 21]: 0.54 µg/mL (≈ 1.23 µM); IC50 [4, 22]: 0.23 µg/mL (≈ 0.523 µM)
C[C@@H]1O[C@@H](Oc2c(O)c3c(c4cccnc24)C(=O)c2ccccc2C3=O)[C@@H](F)[C@H](OC(=O)CCN)[C@@H]1OC(=O)CCN [Compound Q, 5-[3,4-di-O-(3-aminopropionyl)-2,6-dideoxy-2-fluoro-α-L-galactopyranosyloxy]-6-hydroxynaphtho [2,3-f]quinoline-7,12-dione] | 0.79 µg/mL (≈ 1.36 µM) | 0.78 µg/mL (≈ 1.34 µM) | 2.09 µg/mL (≈ 3.59 µM) | 1.43 µg/mL (≈ 2.46 µM) | 1.54 µg/mL (≈ 2.65 µM) | 1.09 µg/mL (≈ 1.87 µM) | 1.7 µg/mL (≈ 2.92 µM) | 0.71 µg/mL (≈ 1.22 µM) | – | – | – | – | – | – | – | – | – | – | – | –
C[C@@H]1O[C@H](Oc2c(O)c3c(c4cccnc24)C(=O)c2ccccc2C3=O)[C@@H](F)[C@H](OC(=O)CCN)[C@@H]1OC(=O)CCN [Compound S, 5-[3,4-di-O-(3-aminopropionyl)-2,6-dideoxy-2-fluoro-β-L-galactopyranosyloxy]-6-hydroxynaphtho[2,3-f] quinoline-7,12-dione] | 0.55 µg/mL (≈ 0.946 µM) | 0.79 µg/mL (≈ 1.36 µM) | 1.13 µg/mL (≈ 1.94 µM) | 0.65 µg/mL (≈ 1.12 µM) | 0.52 µg/mL (≈ 0.894 µM) | 0.68 µg/mL (≈ 1.17 µM) | 0.64 µg/mL (≈ 1.1 µM) | 0.42 µg/mL (≈ 0.722 µM) | – | – | – | – | – | – | – | – | – | – | – | –
C[C@@H]1O[C@@H](Oc2c(O)c3c(c4cccnc24)C(=O)c2ccccc2C3=O)[C@@H](F)[C@H](O)[C@@H]1O [Compound D, 5-(2,6-dideoxy-2-fluoro-α-L-galactopyranosyloxy)-6-hydroxynaphtho[2,3-f]quinoline-7,12-dione] | – | – | – | – | – | – | – | – | 1.24 µg/mL (≈ 2.82 µM) | 1.18 µg/mL (≈ 2.69 µM) | 1.26 µg/mL (≈ 2.87 µM) | 1.06 µg/mL (≈ 2.41 µM) | 0.11 µg/mL (≈ 0.25 µM) | 0.31 µg/mL (≈ 0.706 µM) | 0.35 µg/mL (≈ 0.797 µM) | 0.45 µg/mL (≈ 1.02 µM) | 0.12 µg/mL (≈ 0.273 µM) | 16 times | 8.2 times | IC50 [2, 18]: 0.3 µg/mL (≈ 0.683 µM); IC50 [3, 21]: 0.47 µg/mL (≈ 1.07 µM); IC50 [4, 22]: 0.2 µg/mL (≈ 0.455 µM)
C[C@@H]1O[C@@H](Oc2c(O)c3c(c4cccnc24)C(=O)c2ccccc2C3=O)[C@H](F)[C@H](OC(=O)CCN)[C@@H]1OC(=O)CCN [Compound P, 5-[3,4-di-O-(3-aminopropionyl)-2,6-dideoxy-2-fluoro-α-L-talopyranosyloxy]-6-hydroxynaphtho [2,3-f]quinoline-7,12-dione] | 0.55 µg/mL (≈ 0.946 µM) | 0.82 µg/mL (≈ 1.41 µM) | 1.27 µg/mL (≈ 2.18 µM) | 0.91 µg/mL (≈ 1.56 µM) | 1.46 µg/mL (≈ 2.51 µM) | 0.6 µg/mL (≈ 1.03 µM) | 0.89 µg/mL (≈ 1.53 µM) | 0.46 µg/mL (≈ 0.791 µM) | – | – | – | – | – | – | – | – | – | – | – | –
C[C@@H]1O[C@@H](Oc2c(O)c3c(c4cccnc24)C(=O)c2ccccc2C3=O)[C@H](F)[C@H](O)[C@H]1N [Compound F, 5-(4-amino-2,4,6-trideoxy-2-fluoro-α-L-mannopyranosyloxy)-6-hydroxynaphtho[2,3-f]quinoline-7,12-dione] | – | – | – | – | – | – | – | – | 2.46 µg/mL (≈ 5.61 µM) | 3.48 µg/mL (≈ 7.94 µM) | 2.25 µg/mL (≈ 5.13 µM) | 2.92 µg/mL (≈ 6.66 µM) | 0.35 µg/mL (≈ 0.798 µM) | 0.67 µg/mL (≈ 1.53 µM) | 0.11 µg/mL (≈ 0.251 µM) | 0.34 µg/mL (≈ 0.776 µM) | 0.17 µg/mL (≈ 0.388 µM) | 11 times | 2.6 times | –
C[C@@H]1O[C@H](Oc2c(O)c3c(c4cccnc24)C(=O)c2ccccc2C3=O)[C@@H](F)[C@H](OC(=O)CCN)[C@@H]1O [Compound R, 5-[3-O-(3-aminopropionyl)-2,6-dideoxy-2-fluoro-β-L-galactopyranosyloxy]-6-hydroxynaphtho [2,3-f]quinoline-7,12-dione] | 0.39 µg/mL (≈ 0.764 µM) | 0.68 µg/mL (≈ 1.33 µM) | 0.72 µg/mL (≈ 1.41 µM) | 0.46 µg/mL (≈ 0.901 µM) | 0.47 µg/mL (≈ 0.921 µM) | 0.54 µg/mL (≈ 1.06 µM) | 0.29 µg/mL (≈ 0.568 µM) | 0.18 µg/mL (≈ 0.353 µM) | – | – | – | – | – | – | – | – | – | – | – | anticancer activity against PC3, times higher than that of adriamycin [1, 23]: 2.9 times; anticancer activity against DLD-1, times higher than that of adriamycin [8, 23]: 19 times
